Assays:
[1] = tested on: cisplatin induced neuropathy; experiment: Morphometric analysis of sciatic nerve in cisplatin-treated rats, co-administration; type: in vivo, rat
Method: The total number of fibers per nerve section was obtained from 3 randomized slices of each sample. The counting was performed on 2 selected fields per slice.

[2] = tested on: cisplatin induced neuropathy; experiment: Hot plate test, therapeutic treatment of established cisplatin neuropathy; type: in vivo, rat
[3] = tested on: cisplatin induced neuropathy; type: in vivo, rat
Method: The drug was diluted in 0.9% sterile aqueous solution of sodium chloride.
4-MC was diluted in 0.9% sterile aqueous solution of sodium chloride and injected daily via IP route from day 23 to the end of the experiment.
Electrophysiological tests described in Example 17, were carried out in parallel to the behavioral tests (described in the preceding example) in cisplatin-established neuropathy model. The objective was to assess the therapeutic effect of IL-6 in cisplatin-induced loss of fiber/nerve function.
Electrophysiological recordings were performed using a Neuromatic 2000M electromyograph (EMG) (Dantec, Les Ulis, France). Rats were anaesthetized by IP injection of 60 mg/kg ketamine chlorhydrate (Imalgene 500®, Rhône Merieux, Lyon, France). The normal body temperature was maintained around […] with a heating lamp and verified using a contact thermometer (Quick, Bioblock Scientific, Illkirch, France) placed on the tail surface.
Sensitive nerve conduction velocity (SNCV) was also recorded. The tail skin electrodes were placed as follows: a reference needle inserted at the base of the tail and an anode needle placed 30 mm away from the reference needle toward the extremity of the tail. A ground needle electrode was inserted between the anode and reference needles. The caudal nerve was stimulated with a series of 20 pulses (for 0.2 ms) at an intensity of 12.8 mA. The velocity was expressed in m/s.
H-wave reflex was recorded in the hind footpad muscle after stimulation of the sciatic nerve. A reference electrode and a ground needle were placed on the lower back of the rat. The sciatic nerve was stimulated with a single 0.2 ms pulse at supramaximal intensity. The amplitude (mV) of H wave and the proportion of animal lacking H wave response were the parameters studied.

[4] = tested on: lung (SK-MES1) tumor cell line; experiment: Cell survival by acid phosphatase activity assay, SK-MES1; type: cell-based, human
Method: The human lung (SK-MES1) and breast (MCF7) tumor cell lines were obtained from ATCC. The cell lines were maintained in Dulbecco's MEM medium (Gibco; Invitrogen, Cergy-Pontoise, France, ref. 41965039) supplemented with 1% antibiotic/antimicotic mixture solution (Gibco, ref. 15240062), and 10% heat-inactivated foetal bovine serum (Gibco, ref. F7524, batch 92K3387). The cells were amplified in Nunc tissue culture flasks (80 cm2) in a humidified incubator at 37° C. with 5% CO2 in 95% air. Cultures were sub-cultured twice a week.
The enzymatic activity has been proven to be proportional to the number of living cells (Ueda et al.; 1994).
Three days after the last replication, tumor cells were seeded in 96 well-plates (TPP, VWR International, Fontenay-sous-bois, France) at a density of 1,500 cells (MCF7 line) or 3,000 cells (SK-MES1 line) per well, in a total volume of 100 μl/well and incubated overnight in a humidified incubator at 37° C. with 5% CO2 in 95% air. […] IL-6 (in buffer solution at 1.8 mg/ml, PH: 7) was immediately added at concentrations of 0, 3, 12, 50 or 200 ng/ml.
Four days after the initiation of the intoxication, acid phosphatase activity (Example 21) in each cell culture was assessed.
After removal of the culture medium, cells were rinsed with phosphate-buffered saline (PBS, Gibco, ref. 14190-094) and further incubated for 90 min at 37° C. in 100 μl of buffer containing 0.1 mol/l sodium acetate (pH 5.5), 0.1% Triton X100 (Sigma, ref. T9284) and 10 mmol/l p-nitrophenyl phosphate (Sigma, ref. N9389). Reaction was stopped by addition of 10 μl of 1 mol/l sodium hydroxide aqueous solution (Laboratoire de Produit Chimiques de la Robertsau, Strasbourg, France; ref. 28.252.293). Absorbance of the colored solution was measured at 405 nm in a microplate reader (Labsystems Multiskan Bichromatic, EST-LAB, Strasbourg, France).
The results were expressed as percentage of optical density of the control cell cultures. The heights of the columns represent mean±SEM of percentages of 5-6 wells from two independent cultures.

[5] = tested on: human WiDr colon carcinoma; experiment: Human WiDr colon carcinoma tumor growth in nude mice; type: in vivo, mouse
Method: The following experiment was carried out to check potential drug interaction between IL-6 and the chemotherapeutic agent in vivo.
Balb/c nude mice are used since have proven to be susceptible host systems for the growth of human WiDr colon carcinoma tumor cells. WiDr cells were provided by the bank of the National Cancer Research Institute Genova-Italy. Cell species: human, tissue: colon, tumor: colon adenocarcinoma, accession number: ICLC HTL00003.
Tumor size was recorded twice a week for 4 weeks starting 4 days after cell inoculation.
Each Balb/c nude mice (about 20-25 g body weight) was inoculated subcutaneously (s.c.) with 10^7+5% WiDr cells/mouse (0.2 mL/mouse of cell suspension) on day 1.
A group administered with 0.02% mouse albumin (Sigma) in 40 mM phosphate buffer at pH=7.0, s.c., a group administered with 3.5 mg/kg Cis-platinum, i.p. (in 0.9% NaCl sterile solution for injection), three groups of rats each treated with IL-6 (in 0.02% mouse albumin in 40 mM phosphate buffer at pH=7.0), s.c. at 3, 10 or 30 μg/kg and three groups of rats treated with IL-6 either at 3, 10 or 30 μg/kg IL-6, s.c. in combination with cis-platinum 3.5 mg/kg, i.p.
IL-6 at […] was given s.c. daily (10 mL/kg) from day 4 up to day 18. […] Tumor size was recorded twice a week for 4 weeks starting 4 days after cell inoculation. […]

## N.N.[Cl][Pt][Cl] [cisplatin, Cis-dichlorodiamine platinum]
[1]; cisplatin alone
  fiber diameter: significantly decreases fibers diameter
  percent of myelinated fibers versus control: significant reduction in the percent of myelinated fibers
  percentage of degenerated fibers versus control: two-folds higher
[2]; cisplatin alone, during and 3 weeks post-cisplatin
  hot plate first reaction to heat versus control: significant delayed first reaction to heat
[3]; rat, in vivo
  SNCV versus untreated control: significantly slower
  loss in H wave signal amplitude: about 70%
[4]; cisplatin (2.5 μM), carboplatin (25 μM), 4 days
  decrease in cell survival versus control: about 50%
[5]; cisplatin 3.5 mg/kg i.p. days 4, 8, 12, 18, significant on days 18, 22, 25
  WiDr tumor growth: reduce tumor growth

## IL-6: Recombinant human IL-6 produced in genetically engineered Chinese Hamster Ovary (CHO) cells
[1]; IL-6 1, 3, 10 μg/kg
  loss of myelin wall by cisplatin: significantly protected fibers against the loss of myelin wall
  percentage of degenerated fibers by cisplatin: reduce the percentage of degenerated fibers
[1]; IL-6, statistically significant at 1-10 μg/kg
  cisplatin-induced axon diameter decrease: prevents/reduces cisplatin-induced axon diameter decrease
[1]; IL-6 all doses tested, statistically significant at 1-10 μg/kg
  fiber diameter decrease by cisplatin: prevents/reduce the diameter decrease
[1]; IL-6 co-administration
  myelinated fibers in cisplatin treated rats: increased myelinated fibers
[2]; IL-6 10 μg/kg, 2 weeks after IL-6 treatment, p≦0.05
  time of the first reaction to heat, significance: Significant results
[2]; IL-6 3 and 10 μg/kg SC daily from day 23, two weeks after initiation, p≦0.05
  time of the first reaction to heat: overall reduction in the time of the first reaction
[3]; IL-6 3 μg/kg, after 1 week of treatment, p≦0.01
  SNCV in cisplatin-treated animals: improved the SNCV
[3]; IL-6 3 and 10 μg/kg SC daily from day 23, p≦0.05
  loss of H wave amplitude: reversed the loss of H wave amplitude
[3]; IL-6, 1 week after initiation of treatment
  H wave amplitude loss recovered: about 50%
[3]; IL-6, 2 weeks of treatment
  H wave amplitude recovery: full recovery
[3]; IL-6 vs 4-MC
  curing/ameliorating loss of fiber/nerve function compared with 4-MC: more efficient than 4-MC
[4]; IL-6 3, 12, 50 or 200 ng/ml, p>0.05
  survival of vincristine or cisplatine treated cells in the presence of IL-6: did not change significantly
[4]; IL-6 3, 12, 50 or 200 ng/ml, significant
  survival of carboplatin-intoxicated cells in the presence of IL-6: decrease of survival
[4]; IL-6 3-200 ng/ml, p>0.05
  effect of taxol on cell survival with IL-6: did not change the effect of taxol
[4]; p>0.05
  survival of cells intoxicated with carboplatin and taxol in the presence of IL-6: remained unchanged
[5]; IL-6 alone 3, 10 and 30 μg/kg s.c. daily day 4 to 18
  WiDr tumor growth: did not significantly affect the growth of the tumor

Source: US7951359B2, “Compositions and methods for therapy or prevention of chemotherapy-induced neuropathy” (Merck Serono SA, priority 2004, dated 2011)
